According to ChEMBL document CHEMBL5543126, “Combinatorial Ubiquitination REal-time PROteolysis (CURE-PROs): A Modular Platform for Generating Reversible, Self-Assembling Bifunctional Targeted Degraders” (J Med Chem, 2024):
Calls of active or inactive are those of the source. No cut-off for these calls is given here.

Columns and labels:
[1] = target: T1, von Hippel-Lindau disease tumor suppressor/Bromodomain-containing protein 4 (Homo sapiens, UniProt O60885+P40337); test: (§1) PROTAC activity at VHL/BRD4 in HEK293 cells assessed as induction of BRD4 degradation by measuring degradation rate at 0.3 uM measured every 15 mins for 24 hrs in presence of VHL based ligand (2S,4R)-1-((S)-2-(2,3-dihydroxybenzamido)-3,3-dimethylbutanoyl)-4-hydroxy-N-(4-(4-methylthiazol-5-yl)benzyl)pyrrolidine-2-carboxamide by HiBiT based Combinatorial Ubiquitination Real-time PROteolysis analysis; type: cell-based
T1 sequence (P40337 whole entry, looked up, other chains not shown): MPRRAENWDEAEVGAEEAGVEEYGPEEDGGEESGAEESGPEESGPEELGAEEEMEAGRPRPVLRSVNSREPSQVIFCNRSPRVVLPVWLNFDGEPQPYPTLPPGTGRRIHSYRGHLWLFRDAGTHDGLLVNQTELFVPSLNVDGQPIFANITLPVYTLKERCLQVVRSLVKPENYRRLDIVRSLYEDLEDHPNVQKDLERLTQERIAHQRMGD

[2] = target: T1, von Hippel-Lindau disease tumor suppressor/Bromodomain-containing protein 4; test: as §1, with “10” for “0.3”; type: cell-based
[3] = target: T1, von Hippel-Lindau disease tumor suppressor/Bromodomain-containing protein 4; test: as §1, with “measuring maximal level of” for “measuring”, “degradation” for “degradation rate”, “1” for “0.3”; type: cell-based
[4] = target: T1, von Hippel-Lindau disease tumor suppressor/Bromodomain-containing protein 4; test: as §1, with “human MCF7” for “HEK293”, “degradation” for “degradation by measuring degradation rate”, “10” for “0.3”, “at 4” for “every 15 mins for 24”, “Western blot” for “HiBiT”; type: cell-based
[5] = target: T1, von Hippel-Lindau disease tumor suppressor/Bromodomain-containing protein 4; test: as §1, with “BRD4/VHL” for “VHL/BRD4”, “human MCF7” for “HEK293”, “residual activity” for “degradation rate”, “100 nM incubated” for “0.3 uM measured every 15 mins”, “Western blot” for “HiBiT”; type: cell-based
[6] = target: T1, von Hippel-Lindau disease tumor suppressor/Bromodomain-containing protein 4; test: (§2) PROTAC activity at BRD4/VHL in human MCF7 cells assessed as induction of BRD4 degradation by measuring residual activity at 1 uM incubated for 24 hrs in presence of 100 nM VHL based ligand (2S,4R)-1-((S)-2-(2,3-dihydroxybenzamido)-3,3-dimethylbutanoyl)-4-hydroxy-N-(4-(4-methylthiazol-5-yl)benzyl)pyrrolidine-2-carboxamide by Western blot based Combinatorial Ubiquitination Real-time PROteolysis analysis; type: cell-based
[7] = target: T1, von Hippel-Lindau disease tumor suppressor/Bromodomain-containing protein 4; test: as §2, with “at 10” for “at 1”, “of 300” for “of 100”; type: cell-based
[8] = target: T1, von Hippel-Lindau disease tumor suppressor/Bromodomain-containing protein 4; test: as §2, with “1 uM” for “100 nM”; type: cell-based
[9] = target: T1, von Hippel-Lindau disease tumor suppressor/Bromodomain-containing protein 4; test: as §2, with “at 3” for “at 1”, “of 1 uM” for “of 100 nM”; type: cell-based
[10] = target: T1, von Hippel-Lindau disease tumor suppressor/Bromodomain-containing protein 4; test: as §2, with “30 nM” for “1 uM”, “3 uM” for “100 nM”; type: cell-based
[11] = target: T1, von Hippel-Lindau disease tumor suppressor/Bromodomain-containing protein 4; test: as §2, with “300 nM” for “1 uM”, “3 uM” for “100 nM”; type: cell-based
[12] = target: T1, von Hippel-Lindau disease tumor suppressor/Bromodomain-containing protein 4; test: as §2, with “at 10” for “at 1”, “of 3 uM” for “of 100 nM”; type: cell-based
[13] = target: T1, von Hippel-Lindau disease tumor suppressor/Bromodomain-containing protein 4; test: as §2, with “at 3” for “at 1”, “of 10 uM” for “of 100 nM”; type: cell-based
[14] = target: T1, von Hippel-Lindau disease tumor suppressor/Bromodomain-containing protein 4; test: as §2, with “at 10” for “at 1”, “of 10 uM” for “of 100 nM”; type: cell-based
[15] = target: T1, von Hippel-Lindau disease tumor suppressor/Bromodomain-containing protein 4; test: PROTAC activity at BRD4/VHL in human MCF7 cells assessed as reduction in BRD4 level incubated for 24 hrs in presence of VHL based ligand ((4S)-6-(4-chlorophenyl)-4-(2-(ethylamino)-2-oxoethyl)-1-methyl4Hbenzo[f][1,2,4]triazolo [4,3-a][1,4]diazepin-8-yl)boronic acid by Western blot based Combinatorial Ubiquitination Real-time PROteolysis analysis; type: cell-based
[16] = target: T1, von Hippel-Lindau disease tumor suppressor/Bromodomain-containing protein 4; test: (§3) PROTAC activity at BRD4/VHL in human MCF7 cells assessed as induction of BRD4 degradation by measuring residual activity at 30 nM incubated for 24 hrs in presence of 100 nM BRD4 based ligand ((4S)-6-(4-chlorophenyl)-4-(2-(ethylamino)-2-oxoethyl)-1-methyl4Hbenzo[f][1,2,4]triazolo [4,3-a][1,4]diazepin-8-yl)boronic acid by Western blot based Combinatorial Ubiquitination Real-time PROteolysis analysis; type: cell-based
[17] = target: T1, von Hippel-Lindau disease tumor suppressor/Bromodomain-containing protein 4; test: as §3, with “300” for “30”; type: cell-based
[18] = target: T1, von Hippel-Lindau disease tumor suppressor/Bromodomain-containing protein 4; test: as §3, with “100” for “30”, “300” for “100”; type: cell-based
[19] = target: T1, von Hippel-Lindau disease tumor suppressor/Bromodomain-containing protein 4; test: as §3, with “300” for “30”, “300” for “100”; type: cell-based
[20] = target: T1, von Hippel-Lindau disease tumor suppressor/Bromodomain-containing protein 4; test: as §3, with “1 uM” for “30 nM”, “300” for “100”; type: cell-based
[21] = target: T1, von Hippel-Lindau disease tumor suppressor/Bromodomain-containing protein 4; test: as §3, with “1 uM” for “30 nM”, “1 uM” for “100 nM”; type: cell-based
[22] = target: T1, von Hippel-Lindau disease tumor suppressor/Bromodomain-containing protein 4; test: as §3, with “300” for “30”, “3 uM” for “100 nM”; type: cell-based
[23] = target: T1, von Hippel-Lindau disease tumor suppressor/Bromodomain-containing protein 4; test: as §3, with “10 uM” for “100 nM”; type: cell-based
MV4-11 = test: Antitumor activity against human MV4-11 cells xenografted in nude mouse assessed as reduction in BRD4 level in tumor at 10 mg/kg, ip administered for 4 hrs and measured at 9 to 12 hrs in presence of BRD4 based ligand ((4S)-6-(4-chlorophenyl)-4-(2-(ethylamino)-2-oxoethyl)-1-methyl4Hbenzo[f][1,2,4]triazolo [4,3-a][1,4]diazepin-8-yl)boronic acid; type: functional, organism-based; details: time 9-12 hrs

Compound: CCNC(=O)C[C@@H]1N=C(c2ccc(Cl)cc2)c2cc(B(O)O)ccc2-n2c(C)nnc21
- Activity [1]: 0.144 h⁻¹
- Activity [2]: 4.18 h⁻¹
- Emax [3]: 80%
- Activity [4]: 100%
- Activity [5]: 89%
- Activity [6]: 56%
- Activity [7]: 48%
- Activity [8]: 35%
- Activity [9]: 32%
- Activity [10]: 90%
- Activity [11]: 37%
- Activity [12]: 7%
- Activity [13]: 16%
- Activity [14]: 6%

Compound: Cc1ncsc1-c1ccc(CNC(=O)[C@@H]2C[C@@H](O)CN2C(=O)[C@@H](NC(=O)c2cccc(O)c2O)C(C)(C)C)cc1
- Activity [15]: Active
- DC50 [15]: 0.358 µM
- Activity [16]: 89%
- Activity [17]: 72%
- Activity [18]: 77%
- Activity [19]: 68%
- Activity [20]: 48%
- Activity [21]: 35%
- Activity [22]: 37%
- Activity [23]: 76%
- Activity (MV4-11): Active
